# Where “and” joins values, the source holds several entries; their conditions need not be identical. Equal values may be shown once. Read-outs that look alike come from different tables or passages of the source. Ends that are not written are not given here.
# Key:
# P. aeruginosa [1] = test system: P. aeruginosa
# How it was run: (§1)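 Overnight cultures in salt-free Luria broth (LB-S) were diluted to about 10^4–10^5 CFU/ml. Cells were exposed to two-fold serial dilutions of compound and incubated overnight at 37 °C. MIC was scored from visible growth.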
# S. epidermis = settings: S. epidermis
# How it was run: as §1
# A. calcoaceticus [2] = experiment: MIC, broth dilution in LB-S; type: cell-based; settings: additional MICs
# How it was run: (§2)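 Overnight cultures in salt-free Luria broth (LB-S) were diluted 1:10,000 (about 10^4–10^5 CFU/ml) and added to two-fold serial broth dilutions of compound. After overnight incubation at 37° C, wells were scored for growth, and the MIC was the lowest concentration preventing growth.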
# E. cloacae [3] = experiment: MIC, broth dilution in LB-S; type: cell-based; settings: additional MICs
# How it was run: as §2
# E. coli = experiment: MIC, broth dilution in LB-S; type: cell-based
# How it was run: as §2
# E. faecalis = experiment: MIC, broth dilution in LB-S; type: cell-based; settings: Table 1b, separate set of experiments
# How it was run: as §2
# K. pneumoniae = experiment: MIC, broth dilution in LB-S; type: cell-based; settings: additional MICs
# How it was run: as §2
# S. aureus = experiment: MIC, broth dilution in LB-S; type: cell-based
# How it was run: as §2
# X maltophilia = experiment: MIC, broth dilution in LB-S; type: cell-based; settings: additional MICs
# How it was run: as §2
# Candida albicans = experiment: MIC, broth dilution in LB-S; type: cell-based
# Procedure: (§3) FICs are performed by checkerboard titrations of peptides in one dimension of a microtiter plate, and of antibiotics in the other dimension, for example. The FIC is calculated by looking at the impact of one antibiotic on the MIC of the other and vice versa. […] Preferably, an FIC of less than 0.5 is obtained for synergism. As used herein, FIC can be determined as follows: [formula]
# Briefly, cells were grown overnight at 37° C. in LB-S (Luria broth without any salt supplement) and diluted one in 10,000 in the same medium to give concentrations of about 10^4 to 10^5 CFU/ml. The broth dilutions were set up in a 96 well microtiter plate by putting 200 μl of LB-S containing the initial concentration of antibiotic or compound in column 1 and 100 μl of the same medium in columns 2-12. The compounds were diluted by taking 100 μl of broth from column 1 and mixing it with column 2, resulting in a one in two dilution. This was continued to column 10. Finally, 10 μl of bacteria were pipetted into columns 1-11, and the plates incubated overnight at 37° C. The next day the plates were scored for growth in the wells, and the MIC determined.
# E. coli ML 35 = experiment: Inner membrane permeabilization (ONPG hydrolysis by β-galactosidase); type: cell-based; settings: E. coli ML 35, ONPG
# Procedure: Inner membrane permeability was determined by measurement in E. coli ML 35 of β-galactosidase activity using ONPG as a substrate. Normally ONPG cannot pass across the cytoplasmic membrane to permit hydrolysis by the cytoplasmic enzyme β-galactosidase. However, cationic peptides, by permeabilizing the inner membrane, unmasks this enzyme leading to color development as ONP is released. […] Addition of citrate increased the lag time before the peptides were able to permeabilize the membranes. When the experiments were executed in cation adjusted media (CAMHB), the lag time was increased up to 30 minutes.
# LPS = experiment: Dansyl polymyxin displacement assay; type: binding; settings: Dansyl polymyxin displacement from LPS
# Description: In addition, the peptides of SEQ ID NO: 5-8 also bound effectively to LPS with high affinity based on Dansyl polymyxin displacement assays (Table 5).
# Red Blood Cells = experiment: Red blood cell lysis; type: cell-based; settings: concentration lysing Red Blood Cells
# [4] = α helical content by CD spectra; type: physicochemical
# Procedure: α Helical Content of Cationic Peptides by CD Spectra
# The α helical content of the peptides were measured in buffer, liposomes and 20% Hexafluoroisopropanol (HFPIP). The liposomes constituted of POPC alone or POPC and POPC and 30% POPG (Table 7).
# A. calcoaceticus [5] = settings: agent alone
# Procedure: as §3
# (§4) Synergism is identified as an FIC of about ≦0.5.
# E. cloacae [6] = settings: agent alone
# Procedure: as §3, §4
# P. aeruginosa [7] = experiment: microbe, parasite or virus in culture; settings: agent alone
# Procedure: as §3, §4
# X. maltophila = experiment: organism not typed; settings: agent alone
# Procedure: as §3, §4
sequence,measurement,setting,value
KWKSFIKKLTSAAKKVVTTAKPLISS [MBI 26],MIC,"P. aeruginosa [1]; P. aeruginasa (H 103), additional MICs",4 µg/mL
same,MIC,"P. aeruginosa [1]; P. aeruginosa (H187), Table 1a",11 µg/mL
same,MIC,"P. aeruginosa [1]; P. aeruginosa (H187), Table 1b, separate set of experiments",32 µg/mL
same,MIC P. aeruginosa (H187),"P. aeruginosa [1]; P. aeruginosa (H187), Table 6",4.5 µg/mL
same,MIC,S. epidermis; Table 1a,≧64
same,MIC,"S. epidermis; Table 1b, separate set of experiments",32 µg/mL
same,MIC,A. calcoaceticus [2],2 µg/mL
same,MIC,E. cloacae [3],2 µg/mL
same,MIC,"E. coli; E. coli 0111:B4, additional MICs",2 µg/mL
same,MIC,"E. coli; E. coli (UB1005), Table 1a",3 µg/mL
same,MIC,"E. coli; E. coli (UB1005), Table 1b, separate set of experiments",4 µg/mL
same,MIC E. coli (UB 1005),"E. coli; E. coli (UB 1005), Table 6",1.1 µg/mL
same,MIC,"E. coli; E. coli. Bort, additional MICs",2 µg/mL
same,MIC,E. faecalis,≧64
same,MIC,K. pneumoniae,8 µg/mL
same,MIC,"S. aureus; S. aureus (K 147), Table 1a",≧64
same,MIC,"S. aureus; S. aureus (K147), Table 1b, separate set of experiments",≧64
same,MIC,"S. aureus; S. aureus (SAP0017), Table 1a",≧64
same,MIC,"S. aureus; S. aureus (SAP0017), Table 1b, separate set of experiments",≧64
same,MIC,X maltophilia,2 µg/mL
same,MIC,"Candida albicans; Candida albicans (CAN105), Table 1b, separate set of experiments",≧64
same,MIC,"Candida albicans; Candida alibicans (CAN105), Table 1a",≧64
same,Lag Time,E. coli ML 35,210 s
same,Rate of Hydrolysis,E. coli ML 35,0.081 ΔAU min^−1
same,1max,LPS,38%
same,RBC Lysis,Red Blood Cells,>55 µg/mL
same,% α helicity,[4]; 20% HFIP,70%
same,% α helicity,[4]; Buffer,0%
same,% α helicity,[4]; POPC Liposomes,0%
same,% α helicity,[4]; POPC/POPG Liposomes (30% POPG),8%
same,MIC,"A. calcoaceticus [5]; A. calcoaceticus isolate 1, strain ATCC 23055",128 µg/mL and 64 µg/mL
same,MIC,"A. calcoaceticus [5]; A. calcoaceticus isolate 2, strain 23",32 µg/mL and 64 µg/mL
same,MIC,"A. calcoaceticus [5]; A. calcoaceticus isolate 3, strain 27",64 µg/mL and 32 µg/mL
same,MIC,"A. calcoaceticus [5]; A. calcoaceticus isolate 4, strain 28",16 µg/mL and 32 µg/mL
same,MIC,"A. calcoaceticus [5]; A. calcoaceticus isolate 5, strain 8220",64 µg/mL and 32 µg/mL
same,MIC,"A. calcoaceticus [5]; A. calcoaceticus isolate 6, strain 8221",64 µg/mL
same,MIC,"A. calcoaceticus [5]; A. calcoaceticus isolate 7, strain 8222",64 µg/mL
same,MIC,"A. calcoaceticus [5]; A. calcoaceticus isolate 8, strain 8223",64 µg/mL and 32 µg/mL
same,MIC,"A. calcoaceticus [5]; A. calcoaceticus isolate 9, strain 8224",64 µg/mL
same,MIC,"A. calcoaceticus [5]; A. calcoaceticus isolate 10, strain 8225",64 µg/mL
same,MIC,"A. calcoaceticus [5]; A. calcoaceticus isolate 11, strain 8226",64 µg/mL
same,MIC,"E. cloacae [6]; E. cloacae isolate 14, strain 938-2",64 µg/mL
same,MIC,"E. cloacae [6]; E. cloacae isolate 15, strain B5546",64 µg/mL and 32 µg/mL
same,MIC,"E. cloacae [6]; E. cloacae isolate 16, strain R4148",64 µg/mL and 32 µg/mL
same,MIC,"E. cloacae [6]; E. cloacae isolate 17, strain R4148-2",64 µg/mL and 32 µg/mL
same,MIC,"E. cloacae [6]; E. cloacae isolate 18, strain 3077",64 µg/mL
same,MIC,"E. cloacae [6]; E. cloacae isolate 19, strain 3356",128 µg/mL and 64 µg/mL
same,MIC,"P. aeruginosa [7]; P. aeruginosa isolate 23, strain ATCC 27853",64 µg/mL and 128 µg/mL
same,MIC,"P. aeruginosa [7]; P. aeruginosa isolate 24, strain 34",64 µg/mL and 128 µg/mL
same,MIC,"P. aeruginosa [7]; P. aeruginosa isolate 25, strain 923-1",64 µg/mL and 128 µg/mL
same,MIC,"P. aeruginosa [7]; P. aeruginosa isolate 26, strain 3101",64 µg/mL and 128 µg/mL
same,MIC,"X. maltophila; X. maltophila isolate 34, strain ATCC 13637",64 µg/mL
same,MIC,"X. maltophila; X. maltophila isolate 35, strain 6",64 µg/mL and 128 µg/mL
same,MIC,"X. maltophila; X. maltophila isolate 40, strain R1302-1",128 µg/mL and 64 µg/mL
same,MIC,"X. maltophila; X. maltophila isolate 41, strain R4230",64 µg/mL
